The test relates to bovine monocyte-derived macrophages. The test can be described thus: LPS-induced cytokine response of CATH2-trained monocyte-derived macrophages (U-Plex MSD). The settings on record: CATH2 24 hr, removal, 3-day rest, LPS 1 μg/mL 24 hours; vs vehicle. The class given is cell-based. The text has this:
Peripheral blood mononuclear cells (PBMC) were isolated from bovine blood using ficoll gradients. Bovine monocytes were isolated from PBMC using magnetic assisted cell sorting to positively select for CD14+ cells using anti-human CD14 microbeads (Miltenyi Biotec). Purified bovine blood CD14+ monocytes were differentiated into macrophages using an M2-skewing differentiation factor (recombinant bovine M-CSF) over 7 days then exposed to CATH2 or a vehicle control in the presence of bovine casein to mimic aspects of the mammary gland for 24 hr. […] Following the rest period, a subset of vehicle- and CATH2-trained monocyte-derived macrophages were assessed for epigenetic and transcriptomic changes. The remaining cells were challenged with LPS or E. coli bioparticle labeled with pH-sensitive pHrodo green dye and key parameters for macrophage activation/immune response were assessed including glycolytic activity, surface marker expression, gene expression, cytokine production, phagocytosis, reactive nitrogen species production, and miRNA profiling.
Cytokine levels in cell culture supernatant (IL-8/CXCL8, IL-6, TNFα, IL-1β, IL-10, IL-12p40) were quantified using customized U-Plex assays (MesoScale Diagnostics, LLC). […] Raw data were analyzed using MSD DISCOVERY BENCHWORK.

Regarding “RFGRFLRKIRRFRPKVTITIQGSARFG [CATH2, cathelicidin 2 peptide]”, the “LPS-induced cytokine production (IL-12p40, IL-6, TNFα, IL-8, IL-1β, IL-10)” value was “enhanced production of both pro- and anti-inflammatory cytokines/chemokines”.

The values above are taken from US20250295732A1, “COMPOSITIONS AND METHODS FOR ACTIVATING INNATE IMMUNITY” (Zoetis Services LLC, priority 2021, published 2025).
